How the values were obtained:
Assay in all cases: relative viability (nuclei count vs DMSO), 5 days (fraction); higher = more cells survive
SK-LU-1 = tested on: SK-LU-1
In short: (§1)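 Relative viability equals treated-well nuclei counts divided by vehicle-well nuclei counts. Counts came from 4× images of lung cancer cell lines grown in 1536-well plates for 5 days after pin-tool dosing on the day after seeding. Dosing used one drug alone or a fixed anchor-drug dose plus five library-drug doses (not always all listed) in √10 steps, and values are medians of duplicate plates.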

NCI-H3122 = tested on: NCI-H3122
In short: as §1

NCI-H2087 = tested on: NCI-H2087
In short: as §1

HCC-44 = tested on: HCC-44
In short: as §1

LCLC-103H = tested on: LCLC-103H
In short: as §1

201T = tested on: 201T
In short: as §1

RERF-LC-KJ = tested on: RERF-LC-KJ
In short: as §1

NCI-H1437 = tested on: NCI-H1437
In short: as §1

NCI-H1793 = tested on: NCI-H1793
In short: as §1

NCI-H1944 = tested on: NCI-H1944
In short: as §1

LCLC-97TM1 = tested on: LCLC-97TM1
In short: as §1

LXF-289 = tested on: LXF-289
In short: as §1

NCI-H322M = tested on: NCI-H322M
In short: as §1

BEN = tested on: BEN
In short: as §1

NCI-H727 = tested on: NCI-H727
In short: as §1

NCI-H2405 = tested on: NCI-H2405
In short: as §1

NCI-H2228 = tested on: NCI-H2228
In short: as §1

HCC-827 = tested on: HCC-827
In short: as §1

NCI-H1650 = tested on: NCI-H1650
In short: as §1

CAL-12T = tested on: CAL-12T
In short: as §1

NCI-H647 = tested on: NCI-H647
In short: as §1

HOP-62 = tested on: HOP-62
In short: as §1

NCI-H1395 = tested on: NCI-H1395
In short: as §1

## NC(=O)Nc1cc(-c2cccc(F)c2)sc1C(=O)N[C@H]1CCCNC1 [AZD7762] + Cc1cc(Nc2cc(N3CCN(C)CC3)nc(Sc3ccc(NC(=O)C4CC4)cc3)n2)n[nH]1 [Tozasertib] (partner 0.1 µM)
SK-LU-1; first compound 0.01 µM
  relative viability: 0.374
SK-LU-1; first compound 0.03162 µM
  relative viability: 0.246
SK-LU-1; first compound 0.1 µM
  relative viability: 0.17
SK-LU-1; first compound 0.3162 µM
  relative viability: 0.128
SK-LU-1; first compound 1 µM
  relative viability: 0.142
NCI-H3122; first compound 0.01 µM
  relative viability: 0.475
NCI-H3122; first compound 0.03162 µM
  relative viability: 0.412
NCI-H3122; first compound 0.1 µM
  relative viability: 0.402
NCI-H3122; first compound 0.3162 µM
  relative viability: 0.278
NCI-H3122; first compound 1 µM
  relative viability: 0.156
NCI-H2087; first compound 0.01 µM
  relative viability: 0.24
NCI-H2087; first compound 0.03162 µM
  relative viability: 0.266
NCI-H2087; first compound 0.1 µM
  relative viability: 0.323
NCI-H2087; first compound 0.3162 µM
  relative viability: 0.285
NCI-H2087; first compound 1 µM
  relative viability: 0.232
HCC-44; first compound 0.01 µM
  relative viability: 1.1
HCC-44; first compound 0.03162 µM
  relative viability: 0.87
HCC-44; first compound 0.1 µM
  relative viability: 0.714
HCC-44; first compound 0.3162 µM
  relative viability: 0.822
HCC-44; first compound 1 µM
  relative viability: 0.412
LCLC-103H; first compound 0.01 µM
  relative viability: 0.522
LCLC-103H; first compound 0.03162 µM
  relative viability: 0.442
LCLC-103H; first compound 0.1 µM
  relative viability: 0.524
LCLC-103H; first compound 0.3162 µM
  relative viability: 0.516
LCLC-103H; first compound 1 µM
  relative viability: 0.323
201T; first compound 0.01 µM
  relative viability: 0.957
201T; first compound 0.03162 µM
  relative viability: 0.935
201T; first compound 0.1 µM
  relative viability: 0.98
201T; first compound 0.3162 µM
  relative viability: 1.03
201T; first compound 1 µM
  relative viability: 0.801
RERF-LC-KJ; first compound 0.01 µM
  relative viability: 0.637
RERF-LC-KJ; first compound 0.03162 µM
  relative viability: 0.509
RERF-LC-KJ; first compound 0.1 µM
  relative viability: 0.422
RERF-LC-KJ; first compound 0.3162 µM
  relative viability: 0.453
RERF-LC-KJ; first compound 1 µM
  relative viability: 0.249
NCI-H1437; first compound 0.01 µM
  relative viability: 0.408
NCI-H1437; first compound 0.03162 µM
  relative viability: 0.41
NCI-H1437; first compound 0.1 µM
  relative viability: 0.439
NCI-H1437; first compound 0.3162 µM
  relative viability: 0.372
NCI-H1437; first compound 1 µM
  relative viability: 0.366
NCI-H1793; first compound 0.01 µM
  relative viability: 0.395
NCI-H1793; first compound 0.03162 µM
  relative viability: 0.403
NCI-H1793; first compound 0.1 µM
  relative viability: 0.314
NCI-H1793; first compound 0.3162 µM
  relative viability: 0.374
NCI-H1793; first compound 1 µM
  relative viability: 0.198
NCI-H1944; first compound 0.01 µM
  relative viability: 0.253
NCI-H1944; first compound 0.03162 µM
  relative viability: 0.257
NCI-H1944; first compound 0.1 µM
  relative viability: 0.285
NCI-H1944; first compound 0.3162 µM
  relative viability: 0.301
NCI-H1944; first compound 1 µM
  relative viability: 0.248
LCLC-97TM1; first compound 0.01 µM
  relative viability: 0.325
LCLC-97TM1; first compound 0.03162 µM
  relative viability: 0.263
LCLC-97TM1; first compound 0.1 µM
  relative viability: 0.225
LCLC-97TM1; first compound 0.3162 µM
  relative viability: 0.398
LCLC-97TM1; first compound 1 µM
  relative viability: 0.292
LXF-289; first compound 0.01 µM
  relative viability: 0.215
LXF-289; first compound 0.03162 µM
  relative viability: 0.203
LXF-289; first compound 0.1 µM
  relative viability: 0.196
LXF-289; first compound 0.3162 µM
  relative viability: 0.174
LXF-289; first compound 1 µM
  relative viability: 0.188
NCI-H322M; first compound 0.01 µM
  relative viability: 0.47
NCI-H322M; first compound 0.03162 µM
  relative viability: 0.515
NCI-H322M; first compound 0.1 µM
  relative viability: 0.514
NCI-H322M; first compound 0.3162 µM
  relative viability: 0.307
NCI-H322M; first compound 1 µM
  relative viability: 0.305
BEN; first compound 0.01 µM
  relative viability: 0.521
BEN; first compound 0.03162 µM
  relative viability: 0.465
BEN; first compound 0.1 µM
  relative viability: 0.539
BEN; first compound 0.3162 µM
  relative viability: 0.507
BEN; first compound 1 µM
  relative viability: 0.486
NCI-H727; first compound 0.01 µM
  relative viability: 0.662
NCI-H727; first compound 0.03162 µM
  relative viability: 0.619
NCI-H727; first compound 0.1 µM
  relative viability: 0.525
NCI-H727; first compound 0.3162 µM
  relative viability: 0.596
NCI-H727; first compound 1 µM
  relative viability: 0.35
NCI-H2405; first compound 0.01 µM
  relative viability: 0.793
NCI-H2405; first compound 0.03162 µM
  relative viability: 0.832
NCI-H2405; first compound 0.1 µM
  relative viability: 0.783
NCI-H2405; first compound 0.3162 µM
  relative viability: 0.748
NCI-H2405; first compound 1 µM
  relative viability: 0.424
NCI-H2228; first compound 0.01 µM
  relative viability: 0.274
NCI-H2228; first compound 0.03162 µM
  relative viability: 0.464
NCI-H2228; first compound 0.1 µM
  relative viability: 0.321
NCI-H2228; first compound 0.3162 µM
  relative viability: 0.245
NCI-H2228; first compound 1 µM
  relative viability: 0.121
HCC-827; first compound 0.01 µM
  relative viability: 0.41
HCC-827; first compound 0.03162 µM
  relative viability: 0.449
HCC-827; first compound 0.1 µM
  relative viability: 0.409
HCC-827; first compound 0.3162 µM
  relative viability: 0.394
HCC-827; first compound 1 µM
  relative viability: 0.372
NCI-H1650; first compound 0.01 µM
  relative viability: 0.482
NCI-H1650; first compound 0.03162 µM
  relative viability: 0.467
NCI-H1650; first compound 0.1 µM
  relative viability: 0.424
NCI-H1650; first compound 0.3162 µM
  relative viability: 0.207
NCI-H1650; first compound 1 µM
  relative viability: 0.118
CAL-12T; first compound 0.01 µM
  relative viability: 0.402
CAL-12T; first compound 0.03162 µM
  relative viability: 0.332
CAL-12T; first compound 0.1 µM
  relative viability: 0.353
CAL-12T; first compound 0.3162 µM
  relative viability: 0.168
CAL-12T; first compound 1 µM
  relative viability: 0.0999
NCI-H647; first compound 0.01 µM
  relative viability: 0.379
NCI-H647; first compound 0.03162 µM
  relative viability: 0.218
NCI-H647; first compound 0.1 µM
  relative viability: 0.314
NCI-H647; first compound 0.3162 µM
  relative viability: 0.254
NCI-H647; first compound 1 µM
  relative viability: 0.0439
HOP-62; first compound 0.01 µM
  relative viability: 0.439
HOP-62; first compound 0.03162 µM
  relative viability: 0.376
HOP-62; first compound 0.1 µM
  relative viability: 0.378
HOP-62; first compound 0.3162 µM
  relative viability: 0.339
HOP-62; first compound 1 µM
  relative viability: 0.219
NCI-H1395; first compound 0.01 µM
  relative viability: 0.771
NCI-H1395; first compound 0.03162 µM
  relative viability: 0.851
NCI-H1395; first compound 0.1 µM
  relative viability: 0.742
NCI-H1395; first compound 0.3162 µM
  relative viability: 0.673
NCI-H1395; first compound 1 µM
  relative viability: 0.386

— the supplement of paper PMC10307832
